The conditions of series [1]: Crystal; DSC.
Series [2] can be described thus: Molar enthalpy of transition or fusion. The following applies: Crystal; DSC.

± gives the expanded uncertainty stated by the source.

Consider one compound from the NIST ThermoML archive (doi:10.1021/acs.jced.9b00564).

On to `O=[N+]([O-])c1ncccc1O` [2-nitropyridin-3-ol], for which, in series [1], the Triple point temperature was 342.77 ± 1.2 K. For the same compound, in series [2], the “Molar enthalpy of transition or fusion” value came out at 5.27 ± 0.182 kcal/mol.
